A value given as a limit tells only on which side of the number the result lay.

Assay [1] has as its target GST-tagged KRAS-G12D (2-169) (Homo sapiens, UniProt P01116, G12D). In words: Nucleotide exchange assay (NEA), SOS-mediated, HTRF, KRAS G12D. Type of assay: biochemical. The settings on record: Table 4; IC50 extracted at 30 min; 20 nM SOScat; read-out: NEA G12D IC50. In a few lines: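 SOS1cat-driven loading of fluorescent GTP-DY-647P1 (150 nM) onto GST-KRAS-G12D (2-169, 0.25 nM) read by time-resolved FRET; SOScat 20 nM, compound preincubated with KRAS 1 h at RT. Signal blanked to no-SOS reactions, normalized to DMSO; IC50 fitted from the 30-min read.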
Background: TR-FRET usually uses a lanthanide donor and a delayed reading to cut background.

Assay [2] has as its target GST-tagged KRAS-G12V (2-169) (Homo sapiens, UniProt P01116, G12V). In words: Nucleotide exchange assay (NEA), SOS-mediated, HTRF, KRAS G12V. Type of assay: biochemical. The settings on record: Table 4; IC50 extracted at 90 min; 80 nM SOS. In a few lines: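 Exchange onto fluorescent GTP-DY-647P1 (150 nM final) catalysed by 80 nM SOS1cat was followed by Tb-anti-GST HTRF at RT for up to 90 min, after 1 h compound pre-incubation with 0.25 nM GST-tagged KRAS-G12V (2-169), pH 7.3. DMSO = 0%, no-SOS blank = 100%; 4-parameter IC50 taken at 90 min.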

Assay [3] concerns phospho-ERK in GP2D (KRAS-G12D) cells. In words: pERK In Cell Western (ICW) assay (Method B), GP2D. The assay is classed as cell-based. In a few lines: (§1)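 After overnight attachment, cells received nine half-log compound concentrations for 3 hours, were fixed, permeabilized and probed with phospho-ERK antibody plus DRAQ5. Normalized pERK signal versus blank control yields IC50 via variable-slope four-parameter fit.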

Assay [4] has as its system phospho-ERK in SW620 (KRAS-G12V) cells. The experiment in a line: pERK In Cell Western (ICW) assay (Method B), SW620. The assay is classed as cell-based. In a few lines: as §1
Setting [5] is: Homo sapiens, SW-620, 3 h, Table 4.

GST-tagged KRAS-G12V (2-169), sequence (P01116 2-169 isoform P01116-2 G12V): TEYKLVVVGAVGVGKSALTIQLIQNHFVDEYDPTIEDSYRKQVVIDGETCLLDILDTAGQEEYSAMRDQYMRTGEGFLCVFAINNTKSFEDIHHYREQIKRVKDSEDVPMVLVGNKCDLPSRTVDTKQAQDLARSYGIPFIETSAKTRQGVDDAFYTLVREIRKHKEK
GST-tagged KRAS-G12D (2-169), sequence (P01116 2-169 isoform P01116-2 G12D): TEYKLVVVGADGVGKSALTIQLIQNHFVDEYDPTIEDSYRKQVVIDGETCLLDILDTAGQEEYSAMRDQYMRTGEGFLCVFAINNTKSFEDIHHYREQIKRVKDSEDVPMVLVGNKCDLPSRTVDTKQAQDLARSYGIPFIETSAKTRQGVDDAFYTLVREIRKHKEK

Turning to `N#Cc1c(N)sc2c1C1(CC2)CN(c2nc(OC[C@@]34CCCN3C[C@H](F)C4)nc(N(CCO)Cc3ccc[nH]c3=O)n2)C1` [Compound 136, 2-amino-1′-[4-[[(2R,8S)-2-fluoro-1,2,3,5,6,7-hexahydropyrrolizin-8-yl]methoxy]-6-[2-hydroxyethyl-[(2-oxo-1H-pyridin-3-yl)methyl]amino]-1,3,5-triazin-2-yl]spiro[5,6-dihydrocyclopenta[b]thiophene-4,3′-azetidine]-3-carbonitrile], the IC50 in assay [1] was in the range of 0.1 to 1 µM; in assay [2], 0.1 to 1 µM; in assay [3] (GP2d, 3 h, Table 4), 1 to 20 µM; in assay [4] (setting [5]), 1 to 20 µM.

As to `CCN(c1nc(OCC23CCCN2CCN(C)C3)nc(N2CC3(C2)SCc2sc(N)c(C#N)c23)n1)[C@H](C)c1cccnc1N` (stereo partly drawn) [Compound 223, 2-amino-1′-[4-[[(1R)-1-(2-amino-3-pyridyl)ethyl]-ethyl-amino]-6-[(2-methyl-1,3,4,6,7,8-hexahydropyrrolo[1,2-a]pyrazin-8a-yl)methoxy]-1,3,5-triazin-2-yl]spiro[6H-thieno[3,4-b]thiophene-4,3′-azetidine]-3-carbonitrile], the 50% inhibitory concentration (IC50) was < 0.01 µM in assay [1]; < 0.01 µM in assay [2]; 0.01 to 0.1 µM in assay [3] (GP2d, 3 h, Table 4); 0.01 to 0.1 µM in assay [4] (setting [5]).

In the case of `N#Cc1c(N)sc2c1C1(CC2)CN(c2nc(OC[C@@]34CCCN3C[C@H](F)C4)nc(N3CCCC4(CC(=O)N4)C3)n2)C1` (stereo partly drawn) [Compound 130, 2-amino-1′-[4-[[(2R,8S)-2-fluoro-1,2,3,5,6,7-hexahydropyrrolizin-8-yl]methoxy]-6-(2-oxo-1,8-diazaspiro[3.5]nonan-8-yl)-1,3,5-triazin-2-yl]spiro[5,6-dihydrocyclopenta[b]thiophene-4,3′-azetidine]-3-carbonitrile], the concentration for half-maximal inhibition (IC50) in assay [1] is < 0.01 µM; in assay [2] it was < 0.01 µM; in assay [3] (GP2d, 3 h, Table 4), 0.1 to 1 µM; in assay [4] (setting [5]) it was 1 to 20 µM.

On to `C[C@@]1(O)C[C@H](F)CN(c2nc(OC[C@@]34CCCN3C[C@H](F)C4)nc(N3CC4(C3)SCc3sc(N)c(C#N)c34)n2)C1` [Compound 143, 2-amino-1′-[4-[[(2R,8S)-2-fluoro-1,2,3,5,6,7-hexahydropyrrolizin-8-yl]methoxy]-6-[(3R,5S)-5-fluoro-3-hydroxy-3-methyl-1-piperidyl]-1,3,5-triazin-2-yl]spiro[6H-thieno[3,4-b]thiophene-4,3′-azetidine]-3-carbonitrile], for which the half-inhibitory concentration (IC50) is < 0.01 µM in assay [1]; < 0.01 µM in assay [2]; < 0.01 µM in assay [3] (GP2d, 3 h, Table 4); 0.01 to 0.1 µM in assay [4] (setting [5]).

As to `C[C@@]1(O)C[C@@H](F)CN(c2nc(OC[C@@]34CCCN3C[C@H](F)C4)nc(N3CC4(C3)SCc3sc(N)c(C#N)c34)n2)C1` [Compound 123, 2-amino-1′-[4-[[(2R,8S)-2-fluoro-1,2,3,5,6,7-hexahydropyrrolizin-8-yl]methoxy]-6-[(3R,5R)-5-fluoro-3-hydroxy-3-methyl-1-piperidyl]-1,3,5-triazin-2-yl]spiro[6H-thieno[3,4-b]thiophene-4,3′-azetidine]-3-carbonitrile], the IC50 in assay [1] was < 0.01 µM; in assay [2], < 0.01 µM; in assay [3] (GP2d, 3 h, Table 4) it was 0.01 to 0.1 µM; in assay [4] (setting [5]), 0.1 to 1 µM.

For `N#Cc1c(N)sc2c1C1(CC2)CN(c2nc(OC[C@@]34CCCN3C[C@H](F)C4)nc(N3CCCC(O)(CO)C3)n2)C1` (stereo partly drawn) [Compound 85, 2-amino-1′-[4-[3-hydroxy-3-(hydroxymethyl)-1-piperidyl]-6-[[(2R,8S)-2-fluoro-1,2,3,5,6,7-hexahydropyrrolizin-8-yl]methoxy]-1,3,5-triazin-2-yl]spiro[5,6-dihydrocyclopenta[b]thiophene-4,3′-azetidine]-3-carbonitrile], the IC50 fell in the range of 0.1 to 1 µM in assay [1]; 0.01 to 0.1 µM in assay [2]; 1 to 20 µM in assay [3] (GP2d, 3 h, Table 4); 1 to 20 µM in assay [4] (setting [5]).

Turning to `N#Cc1c(N)sc2c1C1(CC2)CN(c2nc(OC[C@@]34CCCN3C[C@H](F)C4)nc(N(CCO)Cc3cccnc3N)n2)C1` [Compound 107, 2-amino-1′-[4-[(2-amino-3-pyridyl)methyl-(2-hydroxyethyl)amino]-6-[[(2R,8S)-2-fluoro-1,2,3,5,6,7-hexahydropyrrolizin-8-yl]methoxy]-1,3,5-triazin-2-yl]spiro[5,6-dihydrocyclopenta[b]thiophene-4,3′-azetidine]-3-carbonitrile], the concentration for half-maximal inhibition (IC50) in assay [1] is < 0.01 µM; in assay [2] it was < 0.01 µM; in assay [3] (GP2d, 3 h, Table 4) it was 0.01 to 0.1 µM; in assay [4] (setting [5]), 0.01 to 0.1 µM.

Consider `CC(c1cccnc1N)N(CCO)c1nc(OC[C@@]23CCCN2C[C@H](F)C3)nc(N2CC3(CCc4sc(N)c(C#N)c43)C2)n1` (single isomer, unassigned) [Compound 122B, 2-amino-1′-[4-[[(1*)-1-(2-amino-3-pyridyl)ethyl]-(2-hydroxyethyl)amino]-6-[[(2R,8S)-2-fluoro-1,2,3,5,6,7-hexahydropyrrolizin-8-yl]methoxy]-1,3,5-triazin-2-yl]spiro[5,6-dihydrocyclopenta[b]thiophene-4,3′-azetidine]-3-carbonitrile], for which the IC50 in assay [1] was < 0.01 µM; in assay [2], < 0.01 µM; in assay [3] (Table 4, 3 hours), 0.01 to 0.1 µM; in assay [4] (Table 4, 3 hours) it was 0.01 to 0.1 µM.

With `CCN(c1nc(OCC(C)N(C)C)nc(N2CC3(C2)SCc2sc(N)c(C#N)c23)n1)[C@H](C)c1cccnc1N` (stereo partly drawn) [Compound 177, 2-amino-1′-[4-[[(1R)-1-(2-amino-3-pyridyl)ethyl]-ethyl-amino]-6-[2-(dimethylamino)propoxy]-1,3,5-triazin-2-yl]spiro[6H-thieno[3,4-b]thiophene-4,3′-azetidine]-3-carbonitrile], the IC50 in assay [1] was 0.01 to 0.1 µM; in assay [2], < 0.01 µM; in assay [3] (GP2d, 3 h, Table 4) it was 0.1 to 1 µM; in assay [4] (setting [5]), 0.1 to 1 µM.

For `CC(c1ccnnc1N)N(C)c1nc(OC[C@@]23CCCN2C[C@H](F)C3)nc(N2CC3(CCc4sc(N)c(C#N)c43)C2)n1` (stereo partly drawn) [Compound 109, 2-amino-1′-[4-[1-(3-aminopyridazin-4-yl)ethyl-methyl-amino]-6-[[(2R,8S)-2-fluoro-1,2,3,5,6,7-hexahydropyrrolizin-8-yl]methoxy]-1,3,5-triazin-2-yl]spiro[5,6-dihydrocyclopenta[b]thiophene-4,3′-azetidine]-3-carbonitrile], the IC50 was < 0.01 µM in assay [1]; < 0.01 µM in assay [2]; 0.1 to 1 µM in assay [3] (GP2d, 3 h, Table 4); 0.01 to 0.1 µM in assay [4] (setting [5]).

For the molecule `CCN(c1nc(OC[C@@]23CCCN2C[C@H](F)C3)nc(N2CC3(C2)SCc2sc(N)c(C#N)c23)n1)[C@@H](C)c1cccnc1N` [Compound 139B, 2-amino-1′-[4-[[(1*)-1-(2-amino-3-pyridyl)ethyl]-ethyl-amino]-6-[[(2R,8S)-2-fluoro-1,2,3,5,6,7-hexahydropyrrolizin-8-yl]methoxy]-1,3,5-triazin-2-yl]spiro[6H-thieno[3,4-b]thiophene-4,3′-azetidine]-3-carbonitrile], the IC50 in assay [1] was < 0.01 µM; in assay [2], < 0.01 µM; in assay [3] (GP2d, 3 h, Table 4), 0.01 to 0.1 µM; in assay [4] (setting [5]) it was 0.01 to 0.1 µM.

The IC50 is the point on the concentration scale where inhibition reaches its midpoint.

Source of the values: US12421254B2, “KRAS modulators and uses thereof” (Quanta Therapeutics, Inc., priority 2023, dated 2025).
